# Tests used:
# [1] = system: HAdV5-GFP; assay: microbe, parasite or virus in culture; type: cell-based, human adenovirus; details: for inhibition at 10 µM / IC50: Human adenovirus sp.; for inhibition at 10 µM: read-out: Plaque Assay (10 μM) (%) Inhibition; for Plaque Assay (10 μM) (%) Inhibition: HAdV5-GFP, low MOI (0.06 vp/cell), 293β5 cell line; for IC50: read-out: Plaque Assay IC50; for Selectivity Index (SI): ratio of CC50 to IC50 in plaque assay
# Procedure: Compounds were measured at concentrations of 10 μM and in a dose−response assay ranging from 10 to 0.3 μM using low MOI infections (0.06 vp/cell) in a plaque assay. […] Cells were infected with HAdV5-GFP (0.06 vp/cell) and rocked for 2 h at 37 °C, when cells reached 80%–90% confluency. When the incubation was finished, the inoculum was removed followed by washing the cells once with PBS. […] The compounds were also added to the mixture in concentrations ranging from 10 to 0.3 μM. After incubation for 7 days at 37 °C, we scanned plates with a Typhoon FLA 9000 imager (GE Healthcare Life Sciences, MA, USA) and quantified plaques with ImageJ [47].
# [2] = Cytotoxicity assay (AlamarBlue); type: cell-based; details: human, A549 cells, A549 cell line
# Procedure: The cytotoxicity of these derivatives was tested by commercial kit AlamarBlue® (Ref. DAL1025, Invitrogen, MA, USA). […] The cytotoxic concentration 50 (CC50) value was obtained by using the statistical package GraphPad Prism. This assay was performed in duplicate.
Compound,inhibition at 10 µM [1],Plaque Assay (10 μM) (%) Inhibition [1],CC50 at 48 h [2],IC50 [1],Selectivity Index (SI) [1]
"O=C(NC1CCCCC1)c1cc(Cl)ccc1O [Compound 12, 5-Chloro-N-cyclohexyl-2-hydroxybenzamide]",57.6 ± 0.2%,,,,
"O=C(NC1CCCC1)c1cc(Cl)ccc1O [Compound 11, 5-Chloro-N-cyclopentyl-2-hydroxybenzamide]",22.6 ± 7.4%,,,,
"O=C(c1cc(Cl)ccc1O)N1CCCCC1 [Compound 26, (5-Chloro-2-hydroxyphenyl)(piperidin-1-yl)methanone]",0%,,,,
"CN1CCN(CCNC(=O)c2cc(Cl)ccc2O)CC1 [Compound 22, 5-Chloro-2-hydroxy-N-(2-(4-methylpiperazin-1-yl)ethyl)benzamide]",0%,neither piperazine analogue (21 and 22) nor the morpholine analogue 23 showed meaningful inhibitory activity,,,
"O=C(NCCC1CCCCC1)c1cc(Cl)ccc1O [Compound 20, 5-Chloro-N-(2-cyclohexylethyl)-2-hydroxybenzamide]",97.8 ± 1.7%,,66.3 ± 7.9 µM,1 ± 0.1 µM,64.3
"CC(=O)N1CCN(C(=O)c2cc(Cl)ccc2O)CC1 [Compound 27, 1-(4-(5-Chloro-2-hydroxybenzoyl)piperazin-1-yl)ethanone]",0%,,,,
"O=C(NC1CCOCC1)c1cc(Cl)ccc1O [Compound 14, 5-Chloro-2-hydroxy-N-(tetrahydro-2H-pyran-4-yl)benzamide]",0%,completely inactive,,,
"O=C(NCCN1CCOCC1)c1cc(Cl)ccc1O [Compound 23, 5-Chloro-2-hydroxy-N-(2-morpholinoethyl)benzamide]",0%,neither piperazine analogue (21 and 22) nor the morpholine analogue 23 showed meaningful inhibitory activity,,,
"CC(C)(C)OC(=O)NCCCCNC(=O)c1cc(Cl)ccc1O [Compound 25, tert-Butyl (4-(5-chloro-2-hydroxybenzamido)butyl)carbamate]",74 ± 5.7%,,,,
"CC(C)(C)OC(=O)N1CCC(NC(=O)c2cc(Cl)ccc2O)CC1 [Compound 15, tert-Butyl 4-(5-chloro-2-hydroxybenzamido)piperidine-1-carboxylate]",52.2 ± 7.1%,,,,
"CCCCCCNC(=O)c1cc(Cl)ccc1O [Compound 24, 5-Chloro-N-hexyl-2-hydroxybenzamide]",98.5 ± 2.1%,,23.8 ± 3.1 µM,3.73 ± 0.64 µM,6.4
"CC(C)(C)OC(=O)N1CCN(CCNC(=O)c2cc(Cl)ccc2O)CC1 [Compound 21, tert-Butyl 4-(2-(5-chloro-2-hydroxybenzamido)ethyl)piperazine-1-carboxylate]",22.2 ± 13.2%,neither piperazine analogue (21 and 22) nor the morpholine analogue 23 showed meaningful inhibitory activity,,,
"CN1CCN(C(=O)c2cc(Cl)ccc2O)CC1 [Compound 28, (5-Chloro-2-hydroxyphenyl)(4-methylpiperazin-1-yl)methanone]",0%,,,,
"CC(C)(C)OC(=O)N1CCC(CNC(=O)c2cc(Cl)ccc2O)CC1 [Compound 19, tert-Butyl 4-((5-chloro-2-hydroxybenzamido)methyl)piperidine-1-carboxylate]",88.5 ± 1.9%,,,,
"C[C@H](NC(=O)c1cc(Cl)ccc1O)C1CCCCC1 [Compound 17, (S)-5-Chloro-N-(1-cyclohexylethyl)-2-hydroxybenzamide]",100%,,23 ± 1.3 µM,0.51 ± 0.14 µM,45.1
"O=C(NC1CCCCCC1)c1cc(Cl)ccc1O [Compound 13, 5-Chloro-N-cycloheptyl-2-hydroxybenzamide]",99.6 ± 0.2%,,30.9 ± 6.3 µM,4.7 ± 0.1 µM,6.6
"O=C(NCC1CCOCC1)c1cc(Cl)ccc1O [Compound 18, 5-Chloro-2-hydroxy-N-((tetrahydro-2H-pyran-4-yl)methyl)benzamide]",0%,no anti-HAdV activity,,,

# — paper PMC7915867, “Discovery of a Small Molecule Inhibitor of Human Adenovirus Capable of Preventing Escape from the Endosome” (International Journal of Molecular Sciences, 2021)
